The values below are quoted from earlier work in US20110195988A1, “Pharmaceutical Composition” (Special Products Limited, priority 2010, published 2011).

Each structure is given as a SMILES string.

The conditions of this data set: oral formulations of morphine.

On to `CN1CC[C@]23c4c5ccc(O)c4O[C@H]2[C@@H](O)C=C[C@H]3[C@H]1C5` [morphine], for which the “time after administration at which the analgesic effect is observed” value was “around 30 minutes”.
